Columns and labels:
[1] = test system: human iPS cell-derived myocardial cells; assay: Heart rate of myocardial cells by MEA extracellular potential, serum-free culture medium without additive; format: cell-based; conditions: no pretreatment
Protocol: (§1) Reference Example 1: Method and results of evaluating effect on heart rate in a case where muscarinic receptor agonist (carbachol) is added to serum-free culture medium Human iPS cell-derived myocardial cells (iCell myocardial cells 2.0, manufactured by FUJIFILM Cellular Dynamics, Inc.) in a frozen state were thawed, suspended in a thawing culture medium (iCell myocardial cell thawing culture medium, manufactured by FUJIFILM Cellular Dynamics, Inc.), and then seeded at a cell density of 50,000 cells per well on a MEA plate (Cyto View MEA 48, manufactured by Axion BioSystems, Inc.). The seeding density of myocardial cells in the vicinity of the electrode was 2,736 cells/mm^2. […]
(§2) On the day of measurement, the MEA plate on which the human iPS cell-derived myocardial cells were cultured was placed in an MEA system (Maestro Pro, manufactured by Axion BioSystems, Inc.), and the extracellular potential was measured after 20 minutes (medium control, carbachol concentration: 0 μmol/L). Subsequently, 0.01 μmol/L of carbachol (manufactured by Tokyo Chemical Industry Co., Ltd.) was added to the MEA plate, and then the extracellular potential was measured after 20 minutes from the addition. Similarly, carbachol was added to give concentrations of 0.1 μmol/L, 1 μmol/L, and 10 μmol/L, and then the extracellular potential was measured at each concentration after 20 minutes from the addition. […]

[2] = test system: human iPS cell-derived myocardial cells; assay: Heart rate of myocardial cells by MEA, maintenance culture medium containing serum; format: cell-based
Text: as §1, with “Comparative” for “Reference”, “decrease in” for “effect on”, “by” for “in a case where”, “using maintenance” for “is added to serum-free”, “2,798” for “2,736”
as §2, with “concentration.” for “concentration after 20 minutes from the addition.”

C[N+](C)(C)CCOC(N)=O [carbachol]
decrease in heart rate ([1]; carbachol 0.01-10 μmol/L, 20 minutes after each addition, vs medium control): up to 15% | decrease in heart rate ([2]; carbachol 0.01-10 μmol/L): No clear decrease in heart rate

CN1[C@@H]2CC[C@H]1C[C@@H](OC(=O)C(CO)c1ccccc1)C2 (stereo partly shown) [atropine]
increase in heart rate ([1]; atropine 0.01-1 μmol/L): No clear increase in heart rate | increase in heart rate ([2]; atropine 0.01-1 μmol/L): No clear increase in heart rate

From patent US20250354979A1, “DRUG EVALUATION METHOD, REAGENT, AND KIT” (FUJIFILM Corporation, priority 2023, published 2025)
